{"source": "BindingDB's records for doi:10.7270/Q2251GKR", "about": "(Vanderbilt Screening Center for GPCRs, Ion Channels and …, 2010)", "target": "T1, Muscarinic acetylcholine receptor M4 (Rattus norvegicus, UniProt P08485)", "T1 sequence (P08485 whole entry)": "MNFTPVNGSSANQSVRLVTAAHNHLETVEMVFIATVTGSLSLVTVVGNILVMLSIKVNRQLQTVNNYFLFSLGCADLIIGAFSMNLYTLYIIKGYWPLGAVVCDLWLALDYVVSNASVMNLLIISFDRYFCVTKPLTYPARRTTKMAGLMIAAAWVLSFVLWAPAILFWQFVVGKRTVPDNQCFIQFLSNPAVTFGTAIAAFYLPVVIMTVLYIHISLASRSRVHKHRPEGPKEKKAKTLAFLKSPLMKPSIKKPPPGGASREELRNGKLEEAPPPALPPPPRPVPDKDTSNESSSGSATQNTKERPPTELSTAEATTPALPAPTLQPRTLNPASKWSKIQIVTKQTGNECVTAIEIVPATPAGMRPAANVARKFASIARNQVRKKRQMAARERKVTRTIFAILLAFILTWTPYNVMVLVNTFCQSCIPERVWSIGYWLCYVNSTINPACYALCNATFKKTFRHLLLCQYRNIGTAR", "assay": "potentiation of acetylcholine response at rM4 – cell-based, analogs, calcium mobilization, Gqi5, SAR follow-up (AID 1923)", "data": [{"smiles": "Cc1cc(C)c2c(N)c(C(=O)NCc3ccc4c(c3)OCO4)sc2n1", "note": "[3-amino-4,6-dimethyl-N-piperonyl-thieno[2,3-b]pyridine-2-carboxamide]", "values": [{"measurement": "EC50", "result": 0.369, "unit": "µM"}]}]}
